This note sets out measurements from ChEMBL document CHEMBL1130376, “Effects of taxoids from Taxus cuspidata on microtubule depolymerization and vincristine accumulation in MDR cells” (Bioorg Med Chem Lett, 1997).

Experiment [1] in a line: Vincristine (VCR) accumulation in multidrug resistant human ovarian cancer 2780 AD cells at a concentration 1 ug/mL. It counts as functional.
A further experiment relates to L1210. As to the kind of experiment: Cytotoxicity against murine leukemia L1210 cells. The note with it: Mus musculus, L1210; read-out: IC50. Type of experiment: functional, cell-based, Mus musculus.
Experiment [2] is described as follows: Vincristine (VCR) accumulation in multidrug resistant human ovarian cancer 2780 AD cells at a concentration 10 ug/mL. It counts as functional.
The nature of experiment [3]: Cytotoxicity against human epidermoid carcinoma KB cells. Type of experiment: functional, cell-based.

SMILES strings stand for the structures. ≈ marks a conversion by molar mass, not a printed value.

Regarding `CC(=O)O[C@H]1C[C@H]2[C@@H](OC(C)=O)/C=C3\C[C@](C)(C(=O)[C@H](O)C(=C1C)C2(C)C)[C@@H](OC(C)=O)C[C@@H]3OC(=O)C(O)C(c1ccccc1)N(C)C` (stereo not given in full), the “vincristine accumulation (% of control)” value in experiment [1] is 119%; in experiment [2], 298%. Moreover, the values for the IC50 (in the experiment with L1210; in experiment [3]) were 7.1 µg/mL (≈ 10.4 µM) and more than 10 µg/mL, respectively.

With `C=C1[C@@H](OC(=O)CC(c2ccccc2)N(C)C)C[C@H](OC(C)=O)[C@@]2(C)[C@@H](OC(C)=O)[C@H](OC(C)=O)[C@@]3(O)C(C)=C(OC(C)=O)C[C@@H]([C@@H](OC(C)=O)[C@H]12)C3(C)C` (stereo not given in full), the “vincristine accumulation (% of control)” value was found to be 133% in experiment [1] and 358% in experiment [2]. Besides, the figures for the IC50 (in the experiment with L1210; in experiment [3]) were 2.5 µg/mL (≈ 3.25 µM) and 2.6 µg/mL (≈ 3.38 µM), respectively.

As for `C=C1[C@@H](OC(=O)CC(c2ccccc2)N(C)C)CC[C@@]2(C)[C@@H](OC(C)=O)[C@H](OC(C)=O)C3=C(C)C(=O)C[C@@H]([C@@H](OC(C)=O)[C@H]12)C3(C)C` (stereo not given in full), the “vincristine accumulation (% of control)” value in experiment [1] came out at 177%; in experiment [2], 704%. Besides, the IC50 (with L1210; in experiment [3]) was more than 10 µg/mL each time.

`CC(=O)O[C@H]1C[C@@]2(O)[C@H]3OC[C@]4(OC(C)=O)[C@H](O)C[C@H](OC(C)=O)[C@](C)([C@H]34)[C@@H](OC(C)=O)[C@H](OC(C)=O)C(=C1C)C2(C)C`: the “vincristine accumulation (% of control)” value in experiment [1] was 167%; in experiment [2], 234%. Moreover, the IC50 in the experiment on L1210 was found to be 4.5 µg/mL (≈ 7.37 µM); in experiment [3] it was 8.8 µg/mL (≈ 14.4 µM).

With `C=C1[C@@H](OC(=O)/C=C/c2ccccc2)C[C@H](OC(C)=O)[C@]2(C)[C@@H]1C[C@]1(C(C)(C)O)C[C@H](OC(C)=O)C(C)=C1[C@@H](OC(=O)c1ccccc1)[C@@H]2OC(C)=O` [TAXUSPINE A], the “vincristine accumulation (% of control)” value in experiment [1] is listed as 142%; in experiment [2], 246%. Besides, the IC50 in the experiment on L1210 is 4.2 µg/mL (≈ 5.76 µM); in experiment [3] it was more than 10 µg/mL.

`C=C1[C@@H](OC(=O)/C=C/c2ccccc2)CC[C@@]2(C)[C@@H](OC(C)=O)[C@H](OC(C)=O)C3=C(C)C(=O)C[C@@](O)([C@@H](OC(C)=O)[C@H]12)C3(C)C`: the “vincristine accumulation (% of control)” value in experiment [1] was 167%; in experiment [2], 436%. In addition, the IC50 in the experiment on L1210 is 4.6 µg/mL (≈ 7.39 µM); in experiment [3], 6.9 µg/mL (≈ 11.1 µM).

Take `CC(=O)O[C@@]12CO[C@H]1C[C@H](O)[C@@]1(C)C(=O)[C@H](O)C3=C(C)[C@@H](O)C[C@@](O)([C@@H](OC(=O)c4ccccc4)[C@H]21)C3(C)C`: the “vincristine accumulation (% of control)” value in experiment [1] is on record as 153%; in experiment [2] it was 271%. Moreover, the IC50 (with L1210; in experiment [3]) was more than 10 µg/mL in each case.

Consider `C=C1[C@@H](OC(=O)/C=C/c2ccccc2)C[C@H](OC(C)=O)[C@]2(C)[C@@H]1C[C@@H]1C[C@H](OC(C)=O)C(C)=C([C@@H](OC(C)=O)[C@@H]2OC(C)=O)C1(C)C`, for which the “vincristine accumulation (% of control)” value in experiment [1] is reported as 266%; in experiment [2] it was 798%. In addition, the values for the IC50 (in the experiment with L1210; in experiment [3]) were 4.9 µg/mL (≈ 7.53 µM) and more than 10 µg/mL, respectively.

In the case of `C=C1[C@@H](O)C[C@H](O)[C@@]2(C)[C@@H](OC(C)=O)[C@H](OC(C)=O)C3=C(C)C(=O)C[C@@]3(C(C)(C)O)[C@@H](OC(C)=O)[C@H]12`, the “vincristine accumulation (% of control)” value in experiment [1] was determined as 151%; in experiment [2], 191%. Further, the IC50 (in the experiment on L1210; in experiment [3]) was more than 10 µg/mL throughout.

As for `CC(=O)O[C@@H]1C2=C(C)[C@@H](O)C[C@@]2(C(C)(C)O)[C@@H](OC(C)=O)[C@@H]2[C@]3(OC(C)=O)CO[C@@H]3C[C@H](OC(C)=O)[C@@]2(C)[C@H]1OC(C)=O`, the results for the “vincristine accumulation (% of control)” value in experiment [1] and in experiment [2] were 147% and 235%, respectively. The IC50 (with L1210; in experiment [3]) was more than 10 µg/mL throughout.

As for `C=C1[C@@H](OC(=O)CC(c2ccccc2)N(C)C)CC[C@@]2(C)[C@@H](OC(C)=O)[C@H](OC(C)=O)C3=C(C)C(=O)C[C@@](O)([C@@H](OC(C)=O)[C@H]12)C3(C)C` (stereo not given in full), the “vincristine accumulation (% of control)” value in experiment [1] is 175%; in experiment [2], 466%. Also, the IC50 in the experiment on L1210 is 2.7 µg/mL (≈ 4.04 µM); in experiment [3], more than 10 µg/mL.

In the case of `C=C1[C@@H](O)C[C@H](OC(C)=O)[C@@]2(C)[C@@H](OC(C)=O)[C@H](OC(C)=O)[C@]3(O)[C@@]4(C)CO[C@]3(C)C(=O)C[C@H]4[C@@H](OC(C)=O)[C@H]12`, the results for the “vincristine accumulation (% of control)” value in experiment [1] and in experiment [2] were 225% and 213%, respectively. Moreover, the IC50 (in the experiment with L1210; in experiment [3]) was more than 10 µg/mL in each case.

With `C=C1[C@@H](OC(=O)/C=C/c2ccccc2)CC[C@]2(C)[C@@H]1C[C@@H]1C[C@H](OC(C)=O)C(C)=C([C@@H](OC(C)=O)[C@@H]2OC(C)=O)C1(C)C`, the “vincristine accumulation (% of control)” value in experiment [1] is recorded as 102%; in experiment [2], 517%. Moreover, the IC50 turned out to be 9.5 µg/mL (≈ 16 µM) with L1210 and 8.2 µg/mL (≈ 13.8 µM) in experiment [3].

Take `C=C1[C@@H](OC(=O)/C=C/c2ccccc2)C[C@H](OC(C)=O)[C@@]2(COC(C)=O)[C@@H](OC(C)=O)[C@H](O)[C@]3(O)[C@@]4(C)CO[C@]3(C)C(=O)C[C@H]4[C@@H](OC(C)=O)[C@H]12` [TAXUSPINE T]: the “vincristine accumulation (% of control)” value in experiment [1] turned out to be 196%; in experiment [2], 308%. Besides, the results for the IC50 (in the experiment on L1210; in experiment [3]) were 1 µg/mL (≈ 1.4 µM) and 0.06 µg/mL (≈ 0.0842 µM), respectively.

As for `C/C=C(\C)C(=O)O[C@@H]1C2=C(C)[C@@H](O)C[C@@]2(C(C)(C)O)[C@@H](OC(C)=O)[C@@H]2[C@]3(OC(C)=O)CO[C@@H]3C[C@H](OC(C)=O)[C@@]2(C)[C@H]1OC(C)=O`, the “vincristine accumulation (% of control)” value in experiment [1] is 145%; in experiment [2] it was 206%. In addition, the IC50 came out at 4 µg/mL (≈ 6.15 µM) in the experiment on L1210 and 0.3 µg/mL (≈ 0.461 µM) in experiment [3].

As for `CC(=O)O[C@H]1[C@@H]2[C@H](CO)[C@@H](OC(C)=O)C[C@H](OC(C)=O)[C@@]2(C)[C@@H](OC(C)=O)[C@H](OC(C)=O)C2=C(C)[C@@H](OC(C)=O)C[C@@H]1C2(C)C`, the “vincristine accumulation (% of control)” value in experiment [1] is listed as 177%; in experiment [2], 264%. In addition, the IC50 in the experiment on L1210 was 10 µg/mL (≈ 15.7 µM); in experiment [3], 4.5 µg/mL (≈ 7.05 µM).

In the case of `C=C1[C@@H](OC(=O)/C=C/c2ccccc2)C[C@H](OC(C)=O)[C@]2(C)[C@@H]1C[C@]1(C(C)(C)O)C[C@H](OC(C)=O)C(C)=C1[C@@H](OC(C)=O)[C@@H]2OC(C)=O` [TAXUSPINE J], the results for the “vincristine accumulation (% of control)” value in experiment [1] and in experiment [2] were 258% and 842%, respectively. In addition, the IC50 (with L1210; in experiment [3]) was more than 10 µg/mL in each case.

In the case of `C=C1[C@@H](OC(=O)/C=C/c2ccccc2)CC[C@@]2(C)[C@@H](O)[C@H](OC(C)=O)C3=C(C)C(=O)C[C@@H]([C@@H](OC(C)=O)[C@H]12)C3(C)C`, the “vincristine accumulation (% of control)” value in experiment [1] is recorded as 173%; in experiment [2] it was 372%. For the same compound, the IC50 in the experiment with L1210 came out at 1.1 µg/mL (≈ 1.95 µM); in experiment [3], 0.17 µg/mL (≈ 0.301 µM).

With `CC(=O)O[C@H]1C[C@H]2OC[C@@]2(OC(C)=O)[C@H]2[C@H](OC(C)=O)[C@]3(C(C)(C)O)C[C@H](OC(=O)/C=C/c4ccccc4)C(C)=C3[C@@H](OC(=O)c3ccccc3)[C@H](OC(C)=O)[C@]12C` [TAXCHININ B], the “vincristine accumulation (% of control)” value in experiment [1] turned out to be 219%; in experiment [2], 639%. Besides, the IC50 with L1210 was 3.8 µg/mL (≈ 4.73 µM); in experiment [3], more than 10 µg/mL.

For the compound `C=C1[C@@H](O)C[C@H](OC(C)=O)[C@@]2(C)[C@@H](OC(C)=O)[C@H](OC(C)=O)C3=C(C)[C@@H](OC(C)=O)C[C@@H]([C@@H](OC(C)=O)[C@H]12)C3(C)C` [DECINNAMOYLTAXININE J], the “vincristine accumulation (% of control)” value came out at 207% in experiment [1] and 363% in experiment [2]. The IC50 (with L1210; in experiment [3]) was more than 10 µg/mL each time.

For `CC(=O)O[C@H]1C[C@H]2OC[C@@]2(OC(C)=O)[C@H]2[C@H](OC(C)=O)[C@]3(C(C)(C)O)C[C@H](O)C(C)=C3[C@@H](OC(=O)c3ccccc3)[C@H](OC(C)=O)[C@]12C`, the “vincristine accumulation (% of control)” value in experiment [1] was determined as 171%; in experiment [2], 240%. Moreover, the IC50 (with L1210; in experiment [3]) was more than 10 µg/mL throughout.

`CC(=O)O[C@@]12CO[C@@H]1C[C@@H](O)[C@@]1(C)C(=O)[C@H](O)C3=C(C)[C@@H](OC(=O)[C@H](O)C(NC(=O)c4ccccc4)c4ccccc4)C[C@@](O)([C@@H](OC(=O)c4ccccc4)[C@H]21)C3(C)C` (stereo not given in full): the “vincristine accumulation (% of control)” value in experiment [1] turned out to be 192%; in experiment [2], 218%. Also, the IC50 worked out at 0.71 µg/mL (≈ 0.875 µM) in the experiment on L1210 and 0.013 µg/mL (≈ 0.016 µM) in experiment [3].

`CC(=O)OC[C@H]1[C@H]2[C@H](O)[C@]3(O)C[C@H](OC(C)=O)C(C)=C([C@@H](OC(C)=O)[C@H](OC(C)=O)[C@]2(C)[C@@H](OC(C)=O)C[C@@H]1OC(C)=O)C3(C)C`: the “vincristine accumulation (% of control)” value worked out at 147% in experiment [1] and 208% in experiment [2]. For the same compound, the results for the IC50 (with L1210; in experiment [3]) were 4.6 µg/mL (≈ 7.03 µM) and more than 10 µg/mL, respectively.

On to `C=C1[C@@H](O)C[C@H](OC(C)=O)[C@@]2(C)[C@@H](OC(C)=O)[C@H](OC(C)=O)C3=C(C)[C@@H](OC(C)=O)C[C@@H]([C@@H](O)[C@H]12)C3(C)C`, for which the “vincristine accumulation (% of control)” value in experiment [1] turned out to be 205%; in experiment [2] it was 439%. For the same compound, the IC50 with L1210 turned out to be 10 µg/mL (≈ 18.6 µM); in experiment [3], 7.4 µg/mL (≈ 13.8 µM).

Turning to `C=C1[C@@H](OC(=O)CC(c2ccccc2)N(C)C)C[C@H](OC(C)=O)[C@]2(C)[C@@H]1C[C@@H]1C[C@H](OC(C)=O)C(C)=C([C@@H](OC(C)=O)[C@@H]2OC(C)=O)C1(C)C` (stereo not given in full), the “vincristine accumulation (% of control)” value in experiment [1] was determined as 233%; in experiment [2], 841%. The values for the IC50 (with L1210; in experiment [3]) were 7.2 µg/mL (≈ 10.3 µM) and more than 10 µg/mL, respectively.
